Laboratory results taken from article PMC5380659, “Unique charge-dependent constraint on collagen recognition by integrin α10β1” (Matrix Biology, 2017).
Entries after “also recorded” stand apart in the source; their conditions may differ.

Tests used:
[1] = tested on: human recombinant GST-α10 I domain; test: Solid-phase binding assay (SPBA) of wild-type α10 I domain; conditions: short THPs, 2 mM Mg^2 +, 1 h, Fig. 4A
Experimental: The α10 I domain was applied to the collagen II and III Toolkits in the presence or absence of Mg^2 +, and was detected using anti-GST, as described in Experimental: data are shown in Fig. 1. The background response is indicated by wells coated with the control peptide, GPP10 (corresponding to the host sequence), or BSA.
(§1) I domain adhesion was determined colorimetrically, as described, here termed solid phase binding assay (SPBA). Peptides were coated at 10 μg/ml for 1 h at 22 °C on Immulon-2 HB 96-well plates (Thermo Life Sciences, Basingstoke, UK), and blocked for 1 h with 200 μl of TBS containing 50 mg/ml bovine serum albumin. Wells were washed four times with 200 μl of the adhesion buffer (TBS with 1 mg/ml bovine serum albumin) before adding 100 μl of adhesion buffer containing 10 μg/ml of recombinant GST I domains in the presence of either 2 mM MgCl2 or EDTA for 1 h at room temperature. Wells were washed five times with 200 μl of adhesion buffer containing MgCl2 or EDTA, before adding 100 μl of adhesion buffer containing the anti-GST-HRP conjugate at 1:10,000 dilution for 1 h at room temperature. After washing, colour was developed using an ImmunoPure TMB Substrate Kit (Pierce) according to the manufacturer's instructions.

[2] = tested on: collagen-binding integrins; design: method as in 3 sources, ref [7], [8] = [7]; PMID 10778855; doi:10.1016/S0092-8674(00)80622-4; 7 Emsley J. Knight C.G. Farndale R.W. Barnes M.J. Liddington R.C. Structural basis of collagen recognition by integrin alpha2beta1 Cell 101 1 2000 47 56 10778855 10.1016/S0092-8674(00)80622-4 || [8]; PMID 16326707; doi:10.1074/jbc.M509818200; 8 Raynal N. Hamaia S.W. Siljander P.R. Maddox B. Peachey A.R. Fernandez R. Foley L.J. Slatter D.A. Jarvis G.E. Farndale R.W. Use of synthetic peptides to locate novel integrin alpha2beta1-binding moti ||| ref [8], [10] = [8]; PMID 16326707; doi:10.1074/jbc.M509818200; 8 Raynal N. Hamaia S.W. Siljander P.R. Maddox B. Peachey A.R. Fernandez R. Foley L.J. Slatter D.A. Jarvis G.E. Farndale R.W. Use of synthetic peptides to locate novel integrin alpha2beta1-binding moti || [10]; PMID 16043429; doi:10.1074/jbc.M502431200; 10 Kim J.K. Xu Y. Xu X. Keene D.R. Gurusiddappa S. Liang X. Wary K.K. Hook M. A novel binding site in collagen type III for the integrins, alpha 1beta 1 and alpha 2beta 1 J. Biol. Chem. 280 2005 32512 ||| ref [11] = [11]; PMID 10986291; doi:10.1074/jbc.M007668200; 11 Xu Y. Gurusiddappa S. Rich R.L. Owens R.T. Keene D.R. Mayne R. Hook A. Hook M. Multiple binding sites in collagen type I for the integrins α1β1 and α2β1 J. Biol. Chem. 275 2000 38981 38989 10986291; conditions: cited from earlier work
Text: Many related motifs have now been identified using the Collagen Toolkits developed in this laboratory for the purpose. These are libraries of overlapping peptides of 27 amino acids of collagen primary sequence (guest sequence), flanked ...

[3] = tested on: C2C12-α11β1 cells; test: xCELLigence real-time adhesion of C2C12-α11β1 cells; assay type: cell-based, mouse; conditions: up to 1 h, compared to GFOGER, Fig. 6D
[4] = tested on: α10β1; test: Overall recognition by α10β1 (I domain and C2C12-α10β1 cells, summary); conditions: abstract and discussion; I domain and/or C2C12-α10β1 cells
Experimental: as §1
The mouse myoblast cell line, C2C12, (control and transfectants, C2C12-α1β1, C2C12-α2β1, C2C12-α10β1 or C2C12-α11β1) was maintained in RPMI medium containing 10% fetal bovine serum, 2 mM glutamine, 100 IU/ml penicillin, 100 μg/ml streptomycin, and 2.5 μg/ml amphotericin. Cells were harvested by centrifugation, washed, and suspended at 0.5 × 10^6/ml in Tris-buffered saline supplemented with 5.5 mM glucose and either 2 mM EDTA or 2 mM MgCl2. SPBA was performed as follows: 100 μl of the cell suspension was added to peptide-coated wells [42] at 20 °C for 60 min. Cell adhesion was determined colorimetrically after lysis, using a lactate dehydrogenase (LDH)-based cell detection kit (Roche Diagnostics) according to the supplier's instructions.
To quantitate C2C12-α10β1 binding to collagen peptides, we used the impedance-based xCELLigence system (Acea) that allows label-free, dynamic monitoring of cell adhesion in real-time. The assay system expresses the adhesion-dependent rise in well impedance in units of cell index (CI), defined as (Rn − Rb) / 15; where Rn is the electrical impedance of each cell-containing well and Rb is the background impedance of the well with medium alone

| Substance | Binding of α10 I domain to short triple-helical peptides [1] | Ligand of collagen-binding integrins, highest affinity motif ([2]; in collagens I and II, ref [7], [8]) | Adhesion of C2C12-α11β1 cells to short THP (time course) [3] | Recognition by α10β1, summary [4] | Ligand of collagen-binding integrins, GROGER ([2]; ref [8], [10]) |
| --- | --- | --- | --- | --- | --- |
| GFOGER [THP containing GFOGER served as positive control, reference compound] | less well | highest affinity ligand | – | – | – |
| GROGER [short triple-helical peptide containing GROGER] | – | – | bound quite well | only weakly recognised by α10β1; also recorded: compromised in the context of α10β1; also recorded: α10-repellent | quite a good ligand |
| GLOGEN [short THP containing GLOGEN] | bound strongly | – | – | selective ligand in preference to GFOGER; also recorded: high-affinity site | – |
